Assay [1] addresses T1, serotonin (5-HT) reuptake (Rattus norvegicus, UniProt P31652).
T1 construct: synaptosomes are freshly isolated from areas of the rat brain; from tissue; host or cells: rat brain synaptosomes (P2 fraction)
The assay is described as follows: Inhibition of serotonin (5HT) reuptake in synaptosomes from rat brain. It counts as biochemical. The settings on record: test concentration of 10 μM; read-out: 5-HT (inhibition of reuptake of serotonin, % inhibition). A digest of the protocol: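 Compounds screened at 10 μM and reported as percent inhibition of serotonin uptake. Uptake measured in a freshly prepared P2 synaptosomal fraction from rat brain.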

The target in assay [2] is T2, human μ opiate receptor (Homo sapiens, UniProt P35372).
T2 construct: purchased PerkinElmer Life Sciences, Zaventem, Belgium RB-HOM; host or cells: CHO-K1 cells (membrane preparation)
T2 sequence (P35372 whole entry): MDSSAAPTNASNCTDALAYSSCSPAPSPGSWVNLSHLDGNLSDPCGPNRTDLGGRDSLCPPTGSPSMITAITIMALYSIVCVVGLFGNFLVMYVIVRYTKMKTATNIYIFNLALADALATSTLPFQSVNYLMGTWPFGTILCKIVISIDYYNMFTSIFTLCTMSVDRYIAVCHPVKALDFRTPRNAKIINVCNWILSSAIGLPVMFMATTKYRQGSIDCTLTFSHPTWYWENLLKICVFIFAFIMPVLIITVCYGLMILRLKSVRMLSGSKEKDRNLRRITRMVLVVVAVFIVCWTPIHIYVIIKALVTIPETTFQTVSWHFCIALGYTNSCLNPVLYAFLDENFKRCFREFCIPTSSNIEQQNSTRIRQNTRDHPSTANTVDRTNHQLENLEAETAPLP
The assay is described as follows: Affinity for the human μ opiate receptor ([3H]-naloxone displacement, CHO-K1 receptor membrane preparation, SPA). The settings on record: test concentration of 1 μM; read-out: μ (binding on the μ opioid receptor, % inhibition). In kind it is binding. The procedure, abridged: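 SPA, CHO-K1 hμ membranes; 1 nmol/l [3H]-naloxone; Tris-HCl 50 mmol/l + 0.06% BSA; 90 min RT; NSB with 100 μmol/l naloxone; β-counting. Readout: % inhibition of specific binding at 1 μM test compound.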

The text below walks through data of patent US8106055B2, “Substituted amide compounds” (Gruenenthal GmbH, priority 2007, dated 2012).

T1 sequence (P31652 whole entry): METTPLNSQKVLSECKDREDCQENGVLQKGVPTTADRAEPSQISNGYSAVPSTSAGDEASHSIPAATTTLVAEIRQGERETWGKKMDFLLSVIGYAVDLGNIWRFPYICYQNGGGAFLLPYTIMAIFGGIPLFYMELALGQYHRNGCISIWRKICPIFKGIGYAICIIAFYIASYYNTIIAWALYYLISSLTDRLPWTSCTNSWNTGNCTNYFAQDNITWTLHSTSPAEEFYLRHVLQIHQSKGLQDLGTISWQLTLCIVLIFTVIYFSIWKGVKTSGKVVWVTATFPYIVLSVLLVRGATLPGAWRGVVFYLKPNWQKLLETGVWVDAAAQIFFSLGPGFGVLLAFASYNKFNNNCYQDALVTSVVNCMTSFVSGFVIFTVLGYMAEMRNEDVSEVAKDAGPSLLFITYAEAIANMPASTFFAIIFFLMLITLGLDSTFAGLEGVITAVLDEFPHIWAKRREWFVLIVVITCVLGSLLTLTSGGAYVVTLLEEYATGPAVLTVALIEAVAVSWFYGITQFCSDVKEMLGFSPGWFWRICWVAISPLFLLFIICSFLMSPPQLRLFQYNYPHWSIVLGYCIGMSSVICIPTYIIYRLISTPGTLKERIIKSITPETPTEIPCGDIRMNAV

Regarding `COc1cc(C)c(S(=O)(=O)N(C)CCOCC(=O)NCCC2CCC(C(c3cccs3)N(C)C)CC2)c(C)c1C` (stereo not drawn) [Example 52, N-(2-(4-((dimethylamino)(thiophen-2-yl)methyl)cyclohexyl)ethyl)-2-(2-(4-methoxy-N,2,3,6-tetramethylphenylsulfonamido)ethoxy)acetamide], the inhibition at 10 µM in assay [1] came to 91%. In addition, the inhibition at 1 µM in assay [2] is 95%.
Regarding `CN(C)C(c1ccccc1)C1CCC(CNC(=O)COCCN(C)S(=O)(=O)c2ccc(OC(F)(F)F)cc2)CC1` (stereo not drawn) [Example 53, N-((4-((dimethylamino)(phenyl)methyl)cyclohexyl)methyl)-2-(2-(N-methyl-4-(trifluoromethoxy)phenylsulfonamido)ethoxy)acetamide], in assay [1], the inhibition at 10 µM came to 92%. Moreover, the inhibition at 1 µM in assay [2] was 95%.
In the case of `CN(C)C(c1cccs1)C1CCC(CNC(=O)COC2CCN(S(=O)(=O)c3ccc(Cl)cc3)C2)CC1` (stereo not drawn) [Example 54, 2-(1-(4-chlorophenylsulfonyl)pyrrolidin-3-yloxy)-N-((4-((dimethylamino)(thiophen-2-yl)methyl)cyclohexyl)methyl)acetamide], the inhibition at 10 µM in assay [1] was 84%. Also, the inhibition at 1 µM in assay [2] worked out at 95%.
Take `CN(C)C(c1cccs1)C1CCC(CNC(=O)COCCN(C)S(=O)(=O)c2ccc(Cl)cc2)CC1` (stereo not drawn) [Example 55, 2-(2-(4-chloro-N-methylphenylsulfonamido)ethoxy)-N-((4-((dimethylamino)(thiophen-2-yl)methyl)cyclohexyl)methyl)acetamide]: in assay [1], the inhibition at 10 µM stood at 92%. Besides, the inhibition at 1 µM in assay [2] came to 95%.
The like results for `CN(C)C(c1cccs1)C1CCC(CNC(=O)COCCN(C)S(=O)(=O)c2ccc(F)cc2)CC1` (stereo not drawn) [Example 56, N-((4-((dimethylamino)(thiophen-2-yl)methyl)cyclohexyl)methyl)-2-(2-(4-fluoro-N-methylphenylsulfonamido)ethoxy)acetamide] were, in that order, 100% and 95%.
Turning to `Cc1cc(C)c(S(=O)(=O)N(C)CCOCC(=O)NCC2CCC(C(c3cccs3)N(C)C)CC2)c(C)c1` (stereo not drawn) [Example 57, N-((4-((dimethylamino)(thiophen-2-yl)methyl)cyclohexyl)methyl)-2-(2-(N,2,4,6-tetramethylphenylsulfonamido)ethoxy)acetamide], the inhibition at 10 µM in assay [1] is 101%. Besides, the inhibition at 1 µM in assay [2] came out at 95%.
The like results for `COc1cc(C)c(S(=O)(=O)N2CCC(OCC(=O)NCC3CCC(C(c4cccs4)N(C)C)CC3)C2)c(C)c1C` (stereo not drawn) [Example 58, N-((4-((dimethylamino)(thiophen-2-yl)methyl)cyclohexyl)methyl)-2-(1-(4-methoxy-2,3,6-trimethylphenylsulfonyl)pyrrolidin-3-yloxy)acetamide] were, in that order, 94% and 95%.
With `CCN(CCOCC(=O)NC1CCC(C(c2cccs2)N(C)C)CC1)S(=O)(=O)c1c(C)cc(OC)c(C)c1C` (stereo not drawn) [Example 59, N-(4-((dimethylamino)(thiophen-2-yl)methyl)cyclohexyl)-2-(2-(N-ethyl-4-methoxy-2,3,6-trimethylphenylsulfonamido)ethoxy)acetamide], in assay [1], the inhibition at 10 µM stood at 92%. In addition, the inhibition at 1 µM in assay [2] was 95%.
With `COc1cc(C)c(S(=O)(=O)N2CCCC(OCC(=O)NCC3CCC(C(c4cccs4)N(C)C)CC3)C2)c(C)c1C` (stereo not drawn) [Example 60, N-((4-((dimethylamino)(thiophen-2-yl)methyl)cyclohexyl)methyl)-2-(1-(4-methoxy-2,3,6-trimethylphenylsulfonyl)piperidin-3-yloxy)acetamide], the inhibition at 10 µM in assay [1] stood at 92%. In addition, in assay [2], the inhibition at 1 µM was 95%.
On to `COc1cc(C)c(S(=O)(=O)N2CCN(CCOCC(=O)NCC3CCC(C(c4ccccc4)N(C)C)CC3)CC2)c(C)c1C` (stereo not drawn) [Example 61, N-((4-((dimethylamino)(phenyl)methyl)cyclohexyl)methyl)-2-(2-(4-(4-methoxy-2,3,6-trimethylphenylsulfonyl)piperazin-1-yl)ethoxy)acetamide], for which the inhibition at 10 µM in assay [1] stood at 95%. Besides, the inhibition at 1 µM in assay [2] is 95%.
`COc1ccc(S(=O)(=O)N2CCCCC2CCOCC(=O)NC2CCC(C(c3cccc(F)c3)N(C)C)CC2)cc1` (stereo not drawn) [Example 62, N-(4-((dimethylamino)(3-fluorophenyl)methyl)cyclohexyl)-2-(2-(1-(4-methoxyphenylsulfonyl)piperidin-2-yl)ethoxy)acetamide]: the inhibition at 10 µM in assay [1] came out at 96%. In addition, the inhibition at 1 µM in assay [2] was determined as 95%.
Take `Cc1cc(C)c(S(=O)(=O)N2CCC(OCC(=O)NC3CCC(C(c4ccccc4)N(C)C)CC3)C2)c(C)c1` (stereo not drawn) [Example 64, N-(4-((dimethylamino)(phenyl)methyl)cyclohexyl)-2-(1-(mesitylsulfonyl)pyrrolidin-3-yloxy)acetamide]: the inhibition at 10 µM in assay [1] came out at 83%. The inhibition at 1 µM in assay [2] amounted to 94%.
The corresponding values for `CN(C)C(c1cccs1)C1CCC(CCNC(=O)COCCN(C)S(=O)(=O)c2ccc(OC(F)(F)F)cc2)CC1` (stereo not drawn) [Example 65, N-(2-(4-((dimethylamino)(thiophen-2-yl)methyl)cyclohexyl)ethyl)-2-(2-(N-methyl-4-(trifluoromethoxy)phenylsulfonamido)ethoxy)acetamide] are 95% and 96%.
As for `CN(C)C(c1cccs1)C1CCC(CCNC(=O)COC2CCN(S(=O)(=O)c3ccc(Cl)cc3)C2)CC1` (stereo not drawn) [Example 66, 2-(1-(4-chlorophenylsulfonyl)pyrrolidin-3-yloxy)-N-(2-(4-((dimethylamino)(thiophen-2-yl)methyl)cyclohexyl)ethyl)acetamide], in assay [1], the inhibition at 10 µM is 85%. Moreover, in assay [2], the inhibition at 1 µM was determined as 93%.
Consider `CN(C)C(c1ccccc1)C1CCC(CNC(=O)COC2CCN(S(=O)(=O)c3ccc(Cl)cc3Cl)C2)CC1` (stereo not drawn) [Example 67, 2-(1-(2,4-dichlorophenylsulfonyl)pyrrolidin-3-yloxy)-N-((4-((dimethylamino)(phenyl)methyl)cyclohexyl)methyl)acetamide], for which the inhibition at 10 µM in assay [1] came out at 87%. In addition, the inhibition at 1 µM in assay [2] amounted to 96%.
Take `Cc1ccc(S(=O)(=O)N2CCC(OCC(=O)NCC3CCC(C(c4cccs4)N(C)C)CC3)C2)cc1` (stereo not drawn) [Example 68, N-((4-((dimethylamino)(thiophen-2-yl)methyl)cyclohexyl)methyl)-2-(1-tosylpyrrolidin-3-yloxy)acetamide]: the inhibition at 10 µM in assay [1] came out at 82%. In addition, the inhibition at 1 µM in assay [2] was determined as 93%.
Take `COc1cc(C)c(S(=O)(=O)N(C)CCOCC(=O)NCC2CCC(C(c3cccs3)N(C)C)CC2)c(C)c1` (stereo not drawn) [Example 69, N-((4-((dimethylamino)(thiophen-2-yl)methyl)cyclohexyl)methyl)-2-(2-(4-methoxy-N,2,6-trimethylphenylsulfonamido)ethoxy)acetamide]: the inhibition at 10 µM in assay [1] was found to be 86%. Further, the inhibition at 1 µM in assay [2] is 96%.
As to `CN(C)C(c1cccc(F)c1)C1CCC(CNC(=O)COCCN(C)S(=O)(=O)c2ccc(Cl)cc2Cl)CC1` (stereo not drawn) [Example 70, 2-(2-(2,4-dichloro-N-methylphenylsulfonamido)ethoxy)-N-((4-((dimethylamino)(3-fluorophenyl)methyl)cyclohexyl)methyl)acetamide], the inhibition at 10 µM in assay [1] came to 86%. In assay [2], the inhibition at 1 µM was 91%.
For the compound `Cc1cc(C)c(S(=O)(=O)N2CCC(OCC(=O)NCCC3CCC(C(c4cccs4)N(C)C)CC3)C2)c(C)c1` (stereo not drawn) [Example 71, N-(2-(4-((dimethylamino)(thiophen-2-yl)methyl)cyclohexyl)ethyl)-2-(1-(mesitylsulfonyl)pyrrolidin-3-yloxy)acetamide], the inhibition at 10 µM in assay [1] stood at 79%. The inhibition at 1 µM in assay [2] amounted to 94%.
The corresponding values for `CN(C)C(c1cccc(F)c1)C1CCC(CNC(=O)COCCN(C)S(=O)(=O)c2c(Cl)cccc2Cl)CC1` (stereo not drawn) [Example 72, 2-(2-(2,6-dichloro-N-methylphenylsulfonamido)ethoxy)-N-((4-((dimethylamino)(3-fluorophenyl)methyl)cyclohexyl)methyl)acetamide] are 84% and 92%.
Take `COc1ccc(S(=O)(=O)N(C)CCOCC(=O)NC2CCC(C(c3cccs3)N(C)C)CC2)cc1` (stereo not drawn) [Example 73, N-(4-((dimethylamino)(thiophen-2-yl)methyl)cyclohexyl)-2-(2-(4-methoxy-N-methylphenylsulfonamido)ethoxy)acetamide]: in assay [1], the inhibition at 10 µM turned out to be 77%. In addition, the inhibition at 1 µM in assay [2] was 90%.
Take `COc1cc(C)c(S(=O)(=O)N2CCC(OCC(=O)NCCC3CCC(C(c4cccs4)N(C)C)CC3)C2)c(C)c1C` (stereo not drawn) [Example 74, N-(2-(4-((dimethylamino)(thiophen-2-yl)methyl)cyclohexyl)ethyl)-2-(1-(4-methoxy-2,3,6-trimethylphenylsulfonyl)pyrrolidin-3-yloxy)acetamide]: the inhibition at 10 µM in assay [1] came to 98%. Also, the inhibition at 1 µM in assay [2] worked out at 90%.
For `COc1cc(C)c(S(=O)(=O)N2CCC(CCOCC(=O)NCCC3CCC(C(c4cccs4)N(C)C)CC3)CC2)c(C)c1C` (stereo not drawn) [Example 75, N-(2-(4-((dimethylamino)(thiophen-2-yl)methyl)cyclohexyl)ethyl)-2-(2-(1-(4-methoxy-2,3,6-trimethylphenylsulfonyl)piperidin-4-yl)ethoxy)acetamide], in assay [1], the inhibition at 10 µM came to 96%. For the same compound, the inhibition at 1 µM in assay [2] is 92%.
Turning to `COc1cc(C)c(S(=O)(=O)N2CCN(CCOCC(=O)NC3CCC(C(c4cccc(F)c4)N(C)C)CC3)CC2)c(C)c1C` (stereo not drawn) [Example 76, N-(4-((dimethylamino)(3-fluorophenyl)methyl)cyclohexyl)-2-(2-(4-(4-methoxy-2,3,6-trimethylphenylsulfonyl)piperazin-1-yl)ethoxy)acetamide], the inhibition at 10 µM in assay [1] stood at 96%. Also, in assay [2], the inhibition at 1 µM turned out to be 93%.

The term inhibition denotes the drop in the measured response relative to a control, in per cent.
